Measurements taken from US6737383B1, “Herbicidal oxadiazolidines” (priority 1999, dated 2004).

Legend:
rape = assay: Test B pre/postemergence rape; format: in vivo, Brassica napus
In short: (§1)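 Response is a visual 0-to-10 score relative to untreated plants, where 0 means no effect and 10 means complete control, taken twelve to sixteen days after application. Treatments went onto soil at planting and onto foliage of 1- to 4-leaf plants, using a surfactant-containing non-phytotoxic solvent.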

wild oat = assay: Test B pre/postemergence wild oat; format: in vivo, Avena fatua
In short: as §1

corn = assay: Test B pre/postemergence corn; format: in vivo, Zea mays
In short: as §1

surinam grass = assay: Test B pre/postemergence surinam grass; format: in vivo, Brachiaria decumbens
In short: as §1

giant foxtail = assay: Test B pre/postemergence giant foxtail; format: in vivo, Setaria faberii
In short: as §1

crabgrass = assay: Test B pre/postemergence crabgrass; format: in vivo, Digitaria sanguinalis
In short: as §1

morningglory = assay: Test B pre/postemergence morningglory; format: in vivo, Ipomoea hederacea
In short: as §1

soybean = assay: Test B pre/postemergence soybean; format: in vivo, Glycine max
In short: as §1

blackgrass = assay: Test B pre/postemergence blackgrass; format: in vivo, Alopecurus myosuroides
In short: as §1

velvetleaf = assay: Test B pre/postemergence velvetleaf; format: in vivo, Abutilon theophrasti
In short: as §1

bedstraw = assay: Test B pre/postemergence bedstraw; format: in vivo, Galium aparine
In short: as §1

sugar beet = assay: Test B pre/postemergence sugar beet; format: in vivo, Beta vulgaris
In short: as §1

pigweed = assay: Test B pre/postemergence pigweed; format: in vivo, Amaranthus retroflexus
In short: as §1

purple nutsedge = assay: Test B pre/postemergence purple nutsedge; format: in vivo, Cyperus rotundus
In short: as §1

cocklebur = assay: Test B pre/postemergence cocklebur; format: in vivo, Xanthium strumarium
In short: as §1

wheat = assay: Test B pre/postemergence wheat; format: in vivo, Triticum aestivum
In short: as §1

[1] = Postemergence, Rate 62 g/ha, scale 0 to 10, 0 is no effect, 10 is complete control
[2] = Postemergence, Rate 125 g/ha, scale of 0 to 10 where 0 is no effect and 10 is complete control
[3] = Postemergence, Rate 500 g/ha, scale 0 (no effect) to 10 (complete control)
[4] = Rate 62 g/ha, Preemergence, scale 0 to 10
[5] = Rate 125 g/ha, Preemergence, scale 0 to 10 (0 no effect, 10 complete control)
[6] = Rate 250 g/ha, Postemergence, scale 0 to 10, 0 is no effect, 10 is complete control
[7] = Rate 500 g/ha, Preemergence, scale 0 to 10 (0 no effect, 10 complete control)
[8] = Preemergence, Rate 250 g/ha, scale 0 (no effect) to 10 (complete control)

CCOC(CC)n1c(=O)on(C(=O)N(c2ccc(F)cc2F)C(C)C)c1=O (stereo not drawn) [Compound 774]
0: Plant response rating, Rape (rape; [1]) | Rape plant response rating (rape; [2]) | Rape plant response rating (rape; [3]) | Rape plant response rating (rape; [4]) | Rape plant response rating (rape; [5]) | Rape plant response rating (rape; [6]) | Rape plant response rating (rape; [7]) | Plant response rating, Wild oats (wild oat; [1]) | Wild oats plant response rating (wild oat; [3]) | Wild oats plant response rating (wild oat; [4]) | Wild oats plant response rating (wild oat; [5]) | Wild oats plant response rating (wild oat; [6]) | Wild oats plant response rating (wild oat; [7]) | Plant response rating, Corn (corn; [1]) | Corn plant response rating (corn; [2]) | Corn plant response rating (corn; [3]) | Corn plant response rating (corn; [8]) | Corn plant response rating (corn; [4]) | Corn plant response rating (corn; [5]) | Corn plant response rating (corn; [6]) | Corn plant response rating (corn; [7]) | Plant response rating, B. signalgrass (surinam grass; [1]) | B. signalgrass plant response rating (surinam grass; [2]) | B. signalgrass plant response rating (surinam grass; [8]) | B. signalgrass plant response rating (surinam grass; Rate 62 g/ha, Preemergence, scale 0 (no effect) to 10 (complete control)) | B. signalgrass plant response rating (surinam grass; [5]) | B. signalgrass plant response rating (surinam grass; [6]) | B. signalgrass plant response rating (surinam grass; Rate 500 g/ha, Postemergence, scale 0 to 10, 0 is no effect, 10 is complete control) | B. signalgrass plant response rating (surinam grass; [7]) | Plant response rating, Giant foxtail (giant foxtail; [1]) | Giant foxtail plant response rating (giant foxtail; [2]) | Giant foxtail plant response rating (giant foxtail; [3]) | Giant foxtail plant response rating (giant foxtail; [8]) | Giant foxtail plant response rating (giant foxtail; [4]) | Giant foxtail plant response rating (giant foxtail; [5]) | Giant foxtail plant response rating (giant foxtail; [6]) | Giant foxtail plant response rating (giant foxtail; [7]) | Plant response rating, Crabgrass (crabgrass; [1]) | Crabgrass plant response rating (crabgrass; [2]) | Crabgrass plant response rating (crabgrass; [3]) | Crabgrass plant response rating (crabgrass; [8]) | Crabgrass plant response rating (crabgrass; [4]) | Crabgrass plant response rating (crabgrass; [5]) | Crabgrass plant response rating (crabgrass; [6]) | Crabgrass plant response rating (crabgrass; [7]) | Plant response rating, Morningglory (morningglory; [1]) | Morningglory plant response rating (morningglory; [2]) | Morningglory plant response rating (morningglory; [3]) | Morningglory plant response rating (morningglory; [4]) | Morningglory plant response rating (morningglory; [5]) | Morningglory plant response rating (morningglory; [6]) | Morningglory plant response rating (morningglory; [7]) | Plant response rating, Soybean (soybean; [1]) | Soybean plant response rating (soybean; [3]) | Soybean plant response rating (soybean; [4]) | Soybean plant response rating (soybean; [5]) | Soybean plant response rating (soybean; [6]) | Soybean plant response rating (soybean; [7]) | Plant response rating, Blackgrass (blackgrass; [1]) | Blackgrass plant response rating (blackgrass; [2]) | Blackgrass plant response rating (blackgrass; [3]) | Blackgrass plant response rating (blackgrass; [8]) | Blackgrass plant response rating (blackgrass; [4]) | Blackgrass plant response rating (blackgrass; [5]) | Blackgrass plant response rating (blackgrass; [6]) | Blackgrass plant response rating (blackgrass; [7]) | Plant response rating, Velvetleaf (velvetleaf; [1]) | Velvetleaf plant response rating (velvetleaf; [3]) | Velvetleaf plant response rating (velvetleaf; [4]) | Velvetleaf plant response rating (velvetleaf; [5]) | Velvetleaf plant response rating (velvetleaf; [6]) | Velvetleaf plant response rating (velvetleaf; [7]) | Plant response rating, Bedstraw (bedstraw; [1]) | Bedstraw plant response rating (bedstraw; [2]) | Bedstraw plant response rating (bedstraw; [3]) | Bedstraw plant response rating (bedstraw; [8]) | Bedstraw plant response rating (bedstraw; [4]) | Bedstraw plant response rating (bedstraw; [5]) | Bedstraw plant response rating (bedstraw; [6]) | Bedstraw plant response rating (bedstraw; [7]) | Plant response rating, Sugarbeets (sugar beet; [1]) | Sugarbeets plant response rating (sugar beet; [3]) | Sugarbeets plant response rating (sugar beet; [4]) | Sugarbeets plant response rating (sugar beet; [5]) | Sugarbeets plant response rating (sugar beet; [6]) | Sugarbeets plant response rating (sugar beet; [7]) | Plant response rating, Redroot pigweed (pigweed; [1]) | Redroot pigweed plant response rating (pigweed; [2]) | Redroot pigweed plant response rating (pigweed; [3]) | Redroot pigweed plant response rating (pigweed; [4]) | Redroot pigweed plant response rating (pigweed; [5]) | Redroot pigweed plant response rating (pigweed; [6]) | Redroot pigweed plant response rating (pigweed; [7]) | Plant response rating, Nutsedge (purple nutsedge; [1]) | Nutsedge plant response rating (purple nutsedge; [2]) | Nutsedge plant response rating (purple nutsedge; [3]) | Nutsedge plant response rating (purple nutsedge; [4]) | Nutsedge plant response rating (purple nutsedge; [5]) | Nutsedge plant response rating (purple nutsedge; [6]) | Nutsedge plant response rating (purple nutsedge; [7]) | Plant response rating, Cocklebur (cocklebur; [1]) | Cocklebur plant response rating (cocklebur; [2]) | Cocklebur plant response rating (cocklebur; [3]) | Cocklebur plant response rating (cocklebur; [8]) | Cocklebur plant response rating (cocklebur; [4]) | Cocklebur plant response rating (cocklebur; [5]) | Cocklebur plant response rating (cocklebur; [6]) | Cocklebur plant response rating (cocklebur; [7]) | Plant response rating, Wheat (wheat; [1]) | Wheat plant response rating (wheat; [3]) | Wheat plant response rating (wheat; [4]) | Wheat plant response rating (wheat; [5]) | Wheat plant response rating (wheat; [6]) | Wheat plant response rating (wheat; [7])
